Measured values taken from ChEMBL document CHEMBL2074401, “Difloxacin reverses multidrug resistance in HL-60/AR cells that overexpress the multidrug resistance-related protein (MRP) gene” (Oncol Res, 1995).

Molecular target: Multidrug resistance-associated protein 1 (Homo sapiens, UniProt P33527)
Experiment: TP_TRANSPORTER: increase in Daunorubicin, Adriamycin and Vincristine intracellular accumulation (Daunorubicin: 4 ug/mL, Difloxacin: 62.5 uM) in HL-60/AR cells
Assay type: functional, cell-based

Sequence of Multidrug resistance-associated protein 1 (P33527 whole entry): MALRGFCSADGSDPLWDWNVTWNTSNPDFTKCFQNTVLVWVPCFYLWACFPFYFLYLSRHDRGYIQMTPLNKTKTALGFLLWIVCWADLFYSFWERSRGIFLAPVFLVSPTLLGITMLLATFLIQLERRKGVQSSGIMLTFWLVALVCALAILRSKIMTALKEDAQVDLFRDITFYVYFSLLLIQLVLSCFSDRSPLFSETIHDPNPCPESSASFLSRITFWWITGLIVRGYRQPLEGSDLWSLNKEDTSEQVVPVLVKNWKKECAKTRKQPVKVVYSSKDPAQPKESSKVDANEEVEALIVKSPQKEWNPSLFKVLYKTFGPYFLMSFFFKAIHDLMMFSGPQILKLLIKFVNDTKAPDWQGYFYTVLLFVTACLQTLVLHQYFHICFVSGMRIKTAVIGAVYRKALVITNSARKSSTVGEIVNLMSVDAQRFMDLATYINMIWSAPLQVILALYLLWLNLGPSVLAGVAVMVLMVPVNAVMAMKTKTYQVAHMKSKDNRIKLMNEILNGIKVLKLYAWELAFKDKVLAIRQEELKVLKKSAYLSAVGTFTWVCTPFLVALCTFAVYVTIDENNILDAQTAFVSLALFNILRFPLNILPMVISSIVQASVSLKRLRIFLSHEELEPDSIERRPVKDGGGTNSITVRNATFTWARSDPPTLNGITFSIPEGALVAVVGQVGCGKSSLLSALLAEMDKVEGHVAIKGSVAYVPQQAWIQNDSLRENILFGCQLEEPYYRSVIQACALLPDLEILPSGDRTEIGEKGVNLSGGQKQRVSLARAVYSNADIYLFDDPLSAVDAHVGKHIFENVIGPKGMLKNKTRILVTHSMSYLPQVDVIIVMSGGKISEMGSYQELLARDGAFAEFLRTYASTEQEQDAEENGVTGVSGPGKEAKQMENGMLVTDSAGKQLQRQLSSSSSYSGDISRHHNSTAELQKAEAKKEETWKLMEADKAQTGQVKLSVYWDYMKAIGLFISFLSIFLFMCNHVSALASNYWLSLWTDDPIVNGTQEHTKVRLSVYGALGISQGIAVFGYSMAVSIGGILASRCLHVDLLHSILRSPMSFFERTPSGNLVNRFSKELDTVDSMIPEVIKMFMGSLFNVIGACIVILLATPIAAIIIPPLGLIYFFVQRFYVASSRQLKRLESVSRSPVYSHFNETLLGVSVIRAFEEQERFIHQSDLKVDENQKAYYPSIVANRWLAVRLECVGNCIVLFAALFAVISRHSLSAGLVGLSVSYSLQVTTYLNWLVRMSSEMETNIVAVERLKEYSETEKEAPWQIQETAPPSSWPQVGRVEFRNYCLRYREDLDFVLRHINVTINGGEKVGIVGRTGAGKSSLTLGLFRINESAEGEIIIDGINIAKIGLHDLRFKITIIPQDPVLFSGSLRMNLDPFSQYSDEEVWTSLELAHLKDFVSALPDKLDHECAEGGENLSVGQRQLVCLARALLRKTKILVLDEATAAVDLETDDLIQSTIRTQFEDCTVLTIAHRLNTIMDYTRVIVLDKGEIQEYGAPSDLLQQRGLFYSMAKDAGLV

With `CN1CCN(c2cc3c(cc2F)c(=O)c(C(=O)O)cn3-c2ccc(F)cc2)CC1` [DIFLOXACIN] the Activity was “inhibitor [1.3 to 2.9-fold]”.
